Laboratory results taken from patent US9637490B2, “Antifungal 5,6-dihydro-4-[(difluoroethyl)phenyl]-4H-pyrrolo[1,2-α][1,4]benzodiazepine and 4-(difluoroethyl)phenyl-6H-pyrrolo[1,2-α][1,4]benzodiazepine derivatives” (Janssen Pharmaceutica NV, priority 2010, dated 2017).

Tests used:
[1] = tested on: Scedosporium apiospermum IHEM3817; assay: Antifungal activity in vitro (resazurin susceptibility screen), Inf. H; format: cell-based; conditions: Scedosporium apiospermum, IHEM3817, Scedosporium apiospermum IHEM3817; 37 °C, 48 hours, resa time 17 hours
Summary of the method: (§1)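 RPMI-1640/2% glucose/MOPS pH 7.0; 10^3 cfu per well; top conc 64 μM, 2- or 4-fold dilutions from DMSO. Yeasts 24 h 37° C, dermatophytes ≥1 wk 27° C. Resazurin 0.005% added, fluorescence ex 550/em 590 nm vs untreated growth and medium-only controls.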

[2] = tested on: Trichophyton rubrum B68183; assay: Antifungal activity in vitro (resazurin susceptibility screen), Inf. C; format: cell-based; conditions: Trichophyton rubrum, B68183, Trichophyton rubrum B68183; 27 °C, 7 days, resa time 24 hours
Summary of the method: as §1

Rhizopus oryzae IHEM5223 = assay: Antifungal activity in vitro (resazurin susceptibility screen), Inf. J; format: cell-based; conditions: Rhizopus arrhizus, 37 °C, 24 hours, resa time 6 hours
Summary of the method: as §1

[3] = tested on: Sporothrix schenkii B62482; assay: Antifungal activity in vitro (resazurin susceptibility screen), Inf. A; format: cell-based; conditions: Sporothrix, B62482, Sporothrix schenkii B62482; 27 °C, 4 days, resa time 24 hours
Summary of the method: as §1

[4] = In vivo pharmacokinetic determinations (bioavailability) in guinea pigs; conditions: guinea pig, po
Experimental: (§2) Three animals (mean weight 20±7 g for mice and 275±20 for Guinea pigs) were used per dose route, time point and formulation.
(§3) For the oral (PO) solution formulation, compound was dissolved in a 20% hydroxypropyl-β-cyclodextrin (HP-β-CD) solution at a final concentration of 1 mg/ml. HCl was added to facilitate dissolution. After dissolution, the pH was brought up to 3.7 with NaOH. Mannitol was added to make the solution isotonic. For the PO suspension formulation, compound was suspended in 0.5% methocel at a final concentration of 1 mg/ml. The formulations were stored at room temperature, protected from light and analysed quantitatively with LC-MS/MS on the day of preparation. Stability of the formulations was checked on the day of dosing.
(§4) The animals were dosed orally by gastric intubation at 10 ml/kg to obtain a final dose 10 mg/kg. Three dosed animals were sacrificed for blood sampling at 15 and 30 min, 1, 2, 3, 4, 6, 8 and 24 h after PO dose administration as a solution and at 30 min, 1, 2, 4, 6, 8 and 24 h after PO dose administration as a suspension.
(§5) Blood was collected by multiple sampling from a tail vein into Multivette® 600 K3E tubes (Sarstedt). Samples were placed immediately at approximately 4° C. and plasma was obtained following centrifugation at 4° C. for 10 minutes at approximately 1900×g. All samples were shielded from daylight and stored at ≦−18° C. prior to analysis.
(§6) Plasma samples were analysed for dosed compound using a qualified research LC-MS/MS method. The key analytical performance (linearity, upper and lower limit of quantification, accuracy and precision) of the method was reported together with the plasma concentrations.
(§7) A limited pharmacokinetic analysis was performed using WinNonlin™ Professional (Version 5.2.1). A non-compartmental analysis using the lin/log trapezoidal rule with lin/log interpolation was used for all data.

[5] = tested on: Candida parapsilosis B66126; assay: Antifungal activity in vitro (resazurin susceptibility screen), Inf. D; format: cell-based; conditions: Lodderomyces parapsilosis, B66126, Candida parapsilosis B66126; 37 °C, 24 hours, resa time 4 hours
Summary of the method: as §1

in vivo = assay: in vivo; set-up: species or system mice; conditions: mouse, po, 10 mg/kg
Experimental: as §2, §3, §4, §5, §6, §7

IC50 [1]: > 64.6 µM
IC50 [2]: 0.234 µM
melting point: 215.2 to 217.6 °C
IC50 (Rhizopus oryzae IHEM5223): > 64.6 µM
IC50 [3]: 12 µM
bioavailability [4]: 35%
IC50 [5]: 3.09 µM
bioavailability (in vivo): 20%
Structure (SMILES): CC(F)(F)c1ccc(C2=NCc3c(Cl)cccc3-n3cccc32)cc1 [Compound 4, 7-chloro-4-[4-(1,1-difluoroethyl)phenyl]-6H-pyrrolo[1,2-a][1,4]benzodiazepine]
